Results as given in patent publication US20090326037A1 (priority 2005, published 2009).
Values joined by “and” are separate entries in the source; they are usually repeats but may differ in a detail not shown here. Identical values can stand only once. Counter-ions that a name gives are not always drawn. Like-named read-outs stand apart in the source and are kept apart here.

How the values were obtained:
[1] = system: avian influenza virus (H5N1); assay type: in vivo, white mice; conditions: orally
[2] = system: influenza virus A/PR/8/34; assay type: cell-based; conditions: influenza virus A/PR/8/34, MDCK cells; concentration not given
influenza virus H3N2 = assay type: in vivo, mice
[3] = Toxicity (lethal effect, LD50) in rats; assay type: in vivo; conditions: endogastrically, observation 14 days
Experimental: Determination of toxicity of 1-methyl-2-phenylthiomethyl-3-carbethoxy-5-oxy-6-bromindol sulfon as compared with arbidol.
The administration of the preparations was carried out endogastrically, the period of observation of the animals was 14 days.

[4] = system: influenza A/Singapore/1/57 virus; assay: microbe, parasite or virus in culture; assay type: cell-based; conditions: for Percent of inhibition of OD 490: added 2 hours after infection

CCOC(=O)c1c(CSc2ccccc2)n(C)c2cc(Br)c(O)c(CN(C)C)c12 [Arbidol, 1-methyl-2-phenylthiomethyl-3-carbethoxy-4-dimethylaminomethyl-5-oxy-6-bromindol hydrochloride]
Surviving mice, % ([1]; Arbidol 30 mg/kg + Oseltamivir 0.25 mg/kg): 70% | Surviving mice, % ([1]; Arbidol 30 mg/kg + Oseltamivir 1.0 mg/kg): 85% | Surviving mice, % ([1]; Arbidol 30 mg/kg + Oseltamivir 2.5 mg/kg): 100% | Surviving mice, % ([1]; Arbidol 30 mg/kg alone (Oseltamivir 0 mg/kg)): 65% | Percent of suppression of virus reproduction [2]: 60% | Percent of surviving mice (influenza virus H3N2; Concentration 15): 80% | Percent of surviving mice (influenza virus H3N2; Concentration 30, hydrochloride): 80% and 60% and 70% | Lethal effect upon administration to rats ([3]; Dose 100 mg/kg): 0/6 | Lethal effect upon administration to rats ([3]; Dose 250 mg/kg): 0/6 | Lethal effect upon administration to rats ([3]; Dose 500 mg/kg): 1/6 | Lethal effect upon administration to rats ([3]; Dose 1000 mg/kg): 3/6 | Lethal effect upon administration to rats ([3]; Dose 3000 mg/kg): 6/6 | LD50 at 14 days ([3]; rat, in vivo, oral, rats): 1720 ± 70 mg/kg | suppression of virus reproduction ([4]; 1 μg of arbidol with 10-12 mg of zanamivir or oseltamivir): 100% | Percent of inhibition of OD 490 ([4]; A or B 0.3 μg/ml + Zanamivir 0.3 μg): 20% | Percent of inhibition of OD 490 ([4]; A or B 0.3 μg/ml + Zanamivir 1 μg): 30% | Percent of inhibition of OD 490 ([4]; A or B 0.3 μg/ml + Zanamivir 3.3 μg): 37% | Percent of inhibition of OD 490 ([4]; A or B 0.3 μg/ml + Zanamivir 10 μg): 48% | Percent of inhibition of OD 490 ([4]; A or B 0.3 μg/ml + Zanamivir 33 μg): 60% | Percent of inhibition of OD 490 ([4]; A or B 1 μg/ml + Zanamivir 0.3 μg): 33% | Percent of inhibition of OD 490 ([4]; A or B 1 μg/ml + Zanamivir 3.3 μg): 46% | Percent of inhibition of OD 490 ([4]; A or B 1 μg/ml + Zanamivir 10 μg): 100% | Percent of inhibition of OD 490 ([4]; A or B 1 μg/ml + Zanamivir 33 μg): 100% | Percent of inhibition of OD 490 ([4]; A or B 3 μg/ml + Zanamivir 0.3 μg): 60% | Percent of inhibition of OD 490 ([4]; A or B 3 μg/ml + Zanamivir 1 μg): 58% | Percent of inhibition of OD 490 ([4]; A or B 3 μg/ml + Zanamivir 3.3 μg): 93% | Percent of inhibition of OD 490 ([4]; A or B 3 μg/ml + Zanamivir 10 μg): 100% | Percent of inhibition of OD 490 ([4]; A or B 3 μg/ml + Zanamivir 33 μg): 100% | Percent of inhibition of OD 490 ([4]; A or B 5 μg/ml + Zanamivir 0.3 μg): 69% | Percent of inhibition of OD 490 ([4]; A or B 5 μg/ml + Zanamivir 1 μg): 85% | Percent of inhibition of OD 490 ([4]; A or B 5 μg/ml + Zanamivir 3.3 μg): 88% | Percent of inhibition of OD 490 ([4]; A or B 5 μg/ml + Zanamivir 10 μg): 100% | Percent of inhibition of OD 490 ([4]; A or B 5 μg/ml + Zanamivir 33 μg): 100% | Percent of inhibition of OD 490 ([4]; A or B 10 μg/ml + Zanamivir 0.3 μg): 71% | Percent of inhibition of OD 490 ([4]; A or B 10 μg/ml + Zanamivir 1 μg): 85% | Percent of inhibition of OD 490 ([4]; A or B 10 μg/ml + Zanamivir 3.3 μg): 98% | Percent of inhibition of OD 490 ([4]; A or B 10 μg/ml + Zanamivir 10 μg): 100, 100% | Percent of inhibition of OD 490 ([4]; A or B 10 μg/ml + Zanamivir 33 μg): 100, 100% | Percent of inhibition of OD 490 ([4]; A or B 10 μg/ml alone (Zanamivir 0)): 22% | Percent of inhibition of OD 490 ([4]; A or C 0.3 μg/ml + Oseltamivir 0.4 μg): 35% | Percent of inhibition of OD 490 ([4]; A or C 0.3 μg/ml + Oseltamivir 4.1 μg): 37% | Percent of inhibition of OD 490 ([4]; A or C 0.3 μg/ml + Oseltamivir 12.3 μg): 47% | Percent of inhibition of OD 490 ([4]; A or C 1 μg/ml + Oseltamivir 0.4 μg): 48% | Percent of inhibition of OD 490 ([4]; A or C 1 μg/ml + Oseltamivir 1.2 μg): 59% | Percent of inhibition of OD 490 ([4]; A or C 1 μg/ml + Oseltamivir 4.1 μg): 56% | Percent of inhibition of OD 490 ([4]; A or C 1 μg/ml + Oseltamivir 12.3 μg): 100% | Percent of inhibition of OD 490 ([4]; A or C 1 μg/ml + Oseltamivir 41 μg): 100% | Percent of inhibition of OD 490 ([4]; A or C 3 μg/ml + Oseltamivir 0.4 μg): 62% | Percent of inhibition of OD 490 ([4]; A or C 3 μg/ml + Oseltamivir 1.2 μg): 58% | Percent of inhibition of OD 490 ([4]; A or C 3 μg/ml + Oseltamivir 4.1 μg): 90% | Percent of inhibition of OD 490 ([4]; A or C 3 μg/ml + Oseltamivir 12.3 μg): 100% | Percent of inhibition of OD 490 ([4]; A or C 3 μg/ml + Oseltamivir 41 μg): 100, 100% | Percent of inhibition of OD 490 ([4]; A or C 5 μg/ml + Oseltamivir 0.4 μg): 79% | Percent of inhibition of OD 490 ([4]; A or C 5 μg/ml + Oseltamivir 1.2 μg): 84% | Percent of inhibition of OD 490 ([4]; A or C 5 μg/ml + Oseltamivir 4.1 μg): 100% | Percent of inhibition of OD 490 ([4]; A or C 5 μg/ml + Oseltamivir 12.3 μg): 98% | Percent of inhibition of OD 490 ([4]; A or C 5 μg/ml + Oseltamivir 41 μg): 100, 100% | Percent of inhibition of OD 490 ([4]; A or C 10 μg/ml + Oseltamivir 0.4 μg): 70% | Percent of inhibition of OD 490 ([4]; A or C 10 μg/ml + Oseltamivir 1.2 μg): 85% | Percent of inhibition of OD 490 ([4]; A or C 10 μg/ml + Oseltamivir 4.1 μg): 100%
